# Target: T1, HCV NS3-4A serine protease (full-length NS3-4A protein, genotype 1a, strain HCV-1) (Hepatitis C virus genotype 1a, UniProt P26664)
# T1 construct: using the full-length NS3-4A protein (genotype 1a, strain HCV-1)
# Assay: HCV NS3-4A protease assay
# Assay type: biochemical
# Conditions: Protease IC50
# Procedure: The inhibitory activity of certain compounds of Table A against HCV NS3-4A serine protease is determined in a homogenous assay using the full-length NS3-4A protein (genotype 1a, strain HCV-1) and a commercially available internally-quenched fluorogenic peptide substrate as described by Taliani, M., et al. 1996 Anal. Biochem. 240:60-67, which is incorporated by reference in its entirety.
# T1 sequence (P26664 1658-1711): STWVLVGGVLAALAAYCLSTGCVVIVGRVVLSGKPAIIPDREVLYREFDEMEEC
# T1 sequence (P26664 1027-1657): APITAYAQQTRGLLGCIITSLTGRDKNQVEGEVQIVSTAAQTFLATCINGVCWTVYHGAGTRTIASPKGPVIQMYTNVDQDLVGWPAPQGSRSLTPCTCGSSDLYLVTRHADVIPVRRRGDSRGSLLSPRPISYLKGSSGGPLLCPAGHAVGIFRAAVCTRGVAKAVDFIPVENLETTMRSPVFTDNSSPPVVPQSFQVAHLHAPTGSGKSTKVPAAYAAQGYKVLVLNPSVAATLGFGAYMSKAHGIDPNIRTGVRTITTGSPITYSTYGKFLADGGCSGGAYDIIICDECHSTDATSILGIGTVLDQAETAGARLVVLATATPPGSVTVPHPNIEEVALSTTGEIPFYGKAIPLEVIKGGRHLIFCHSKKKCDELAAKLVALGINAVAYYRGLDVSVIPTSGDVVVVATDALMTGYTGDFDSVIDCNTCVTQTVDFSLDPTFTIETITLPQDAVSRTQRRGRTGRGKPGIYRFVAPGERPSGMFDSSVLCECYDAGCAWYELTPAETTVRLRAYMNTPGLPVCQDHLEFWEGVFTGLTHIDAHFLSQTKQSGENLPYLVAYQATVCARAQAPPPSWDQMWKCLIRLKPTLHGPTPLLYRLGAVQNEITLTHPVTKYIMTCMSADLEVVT
row,SMILES,IC50
1,"CCCC(NC(=O)[C@@H]1C[C@@]2(CN1C(=O)C(NC(=O)[C@@H](NC(=O)C(C)(C)N1CCCC1)C1CCCCC1)C(C)(C)C)C(C)(C)C21CCC1)C(=O)NS(=O)(=O)C1CC1 (stereo partly drawn) [Compound 2, (5R,8S)-7-[2-({(2S)-2-cyclohexyl-2-[(2-methyl-2-pyrrolidin-1-ylpropanoyl)amino]acetyl}amino)-3,3-dimethylbutanoyl]-N-{1-[(cyclopropylsulfonyl)carba-moyl]butyl}-10,10-dimethyl-7-azadispiro[3.0.4.1]decane-8-carboxamide]",2250 nM
2,"CC(C)(C)[C@H](NC(=O)[C@@H](NC(=O)C(C)(C)N1CCCC1)C1CCCCC1)C(=O)N1C[C@]2(C[C@H]1C(=O)NC1(C(=O)NS(=O)(=O)C3CC3)CC1)C(C)(C)C21CCC1 [Compound 3, (5R,8S)-7-[(2S)-2-({(2S)-2-cyclohexyl-2-[(2-methyl-2-pyrrolidin-1-ylpropanoyl)amino]acetyl}amino)-3,3-dimethylbutanoyl]-N-{1-[(cyclopropylsulfonyl)carba-moyl]cyclopropyl}-10,10-dimethyl-7-azadispiro[3.0.4.1]decane-8-carboxamide]",45 nM
3,"C=C[C@@H]1C[C@]1(NC(=O)[C@@H]1C[C@@]2(CN1C(=O)[C@@H](NC(=O)[C@@H](NC(=O)[C@@H]1CCCCN1C(C)C)C(C)(C)C)C(C)(C)C)C(C)(C)C21CCC1)C(=O)NS(=O)(=O)c1cccc2cc[nH]c12 [Compound 4, (5R,8S)-N-{(1R,2S)-1-[(1H-indol-7-ylsulfonyl)carbamoyl]-2-vinylcyclopropyl}-7-[(2S)-2-{[(2S)-2-({[(2S)-1-isopropylpiperidin-2-yl]carbonyl}amino)-3,3-dimethylbutanoyl]amino}-3,3-dimethylbutanoyl]-10,10-dimethyl-7-azadispiro[3.0.4.1]decane-8-carboxamide]",0.8 nM
4,"C=C[C@@H]1C[C@]1(NC(=O)[C@@H]1C[C@@]2(CN1C(=O)C(NC(=O)[C@@H](NC(=O)OC(C)(C)C)C(C)(C)C)C(C)(C)C)C(C)(C)C21CCC1)C(=O)NS(=O)(=O)c1ccccc1 (stereo partly drawn) [Compound 5, tert-butyl {(1S)-1-[(1-{[(5R,8S)-10,10-dimethyl-8-({(1R,2S)-1-[(phenylsulfonyl)carbamoyl]-2-vinylcyclopropyl}carbamoyl)-7-azadispiro[3.0.4.1]dec-7-yl]carbonyl}-2,2-dimethylpropyl)carbamoyl]-2,2-dimethylpropyl}carbamate]",1950 nM
5,"C=C[C@@H]1C[C@]1(NC(=O)[C@@H]1C[C@@]2(CN1C(=O)[C@@H](NC(=O)[C@@H](NC(=O)OC(C)(C)C)C(C)(C)C)C(C)(C)C)C(C)(C)C21CCC1)C(=O)NS(=O)(=O)C1CC1 [Compound 6, tert-butyl [(1S)-1-{[(1S)-1-{[(5R,8S)-8-({(1R,2S)-1-[(cyclopropylsulfonyl)carba-moyl]-2-vinylcyclopropyl}carbamoyl)-10,10-dimethyl-7-azadispiro[3.0.4.1]dec-7-yl]carbonyl}-2,2-dimethylpropyl]carbamoyl}-2,2-dimethylpropyl]carbamate]",80 nM
6,"C=C[C@@H]1C[C@]1(NC(=O)[C@@H]1C[C@@]2(CN1C(=O)[C@@H](NC(=O)[C@@H](NC(=O)[C@@H]1CCCN(CCF)C1)C(C)(C)C)C(C)(C)C)C(C)(C)C21CCC1)C(=O)NS(=O)(=O)C1CC1 [Compound 8, (5R,8S)-N-{(1R,2S)-1-[(cyclopropylsulfonyl)carba-moyl]-2-vinylcyclopropyl}-7-[(2S)-2-{[(2S)-2-({[(3R)-1-(2-fluoroethyl)piperidin-3-yl]carbonyl}amino)-3,3-dimethylbutanoyl]amino}-3,3-dimethylbutanoyl]-10,10-dimethyl-7-azadispiro[3.0.4.1]decane-8-carboxamide]",25 nM
7,"C=C[C@@H]1C[C@]1(NC(=O)[C@@H]1C[C@@]2(CN1C(=O)[C@@H](NC(=O)[C@@H](NC(=O)[C@@H]1CCCCN1CCF)C(C)(C)C)C(C)(C)C)C(C)(C)C21CCC1)C(=O)NS(=O)(=O)C1CC1 [Compound 9, (5R,8S)-N-{(1R,2S)-1-[(cyclopropylsulfonyl)carba-moyl]-2-vinylcyclopropyl}-7-[(2S)-2-{[(2S)-2-({[(2S)-1-(2-fluoroethyl)piperidin-2-yl]carbonyl}amino)-3,3-dimethylbutanoyl]amino}-3,3-dimethylbutanoyl]-10,10-dimethyl-7-azadispiro[3.0.4.1]decane-8-carboxamide]",8 nM

# Same assay, conditions: read-out: Protease IC50
row,IC50,SMILES
1,100 nM,"C=C[C@@H]1C[C@]1(NC(=O)[C@@H]1C[C@@]2(CN1C(=O)[C@@H](NC(=O)OC(C)(C)C)C(C)C)C(C)(C)C21CCC1)C(=O)NS(=O)(=O)C1CC1 [Compound 1, tert-butyl [(1S)-1-{[(5R,8S)-8-({(1R,2S)-1-[(cyclopropylsulfonyl)carba-moyl]-2-vinylcyclopropyl}carbamoyl)-10,10-dimethyl-7-azadispiro[3.0.4.1]dec-7-yl]carbonyl}-2-methylpropyl]carbamate]"
2,100 nM,"C=C[C@@H]1C[C@]1(NC(=O)[C@@H]1C[C@@]2(CN1C(=O)[C@@H](NC(=O)CC1CCCCC1)C(C)(C)C)C(C)(C)C21CCC1)C(=O)NS(=O)(=O)C1CC1 [Compound 7, (5R,8S)-7-{(2S)-2-[(cyclohexylacetyl)amino]-3,3-dimethylbutanoyl}-N-{(1R,2S)-1-[(cyclopropylsulfonyl)carba-moyl]-2-vinylcyclopropyl}-10,10-dimethyl-7-azadispiro[3.0.4.1]decane-8-carboxamide]"
3,25 nM,"C=C[C@@H]1C[C@]1(NC(=O)[C@@H]1C[C@@]2(CN1C(=O)[C@@H](NC(=O)OC1CCCC1)C(C)(C)C)C(C)(C)C21CCC1)C(=O)NS(=O)(=O)C1CC1 [Compound 10, cyclopentyl [(1S)-1-{[(5R,8S)-8-({(1R,2S)-1-[(cyclopropylsulfonyl)carba-moyl]-2-vinylcyclopropyl}carbamoyl)-10,10-dimethyl-7-azadispiro[3.0.4.1]dec-7-yl]carbonyl}-2,2-dimethylpropyl]carbamate]"
4,200 nM,"C=C[C@@H]1C[C@]1(NC(=O)[C@@H]1C[C@@]2(CN1C(=O)[C@@H](NC(=O)c1ccc3cnccc3n1)C(C)(C)C)C(C)(C)C21CCC1)C(=O)NS(=O)(=O)C1CC1 [Compound 11, (5R,8S)-N-{(1R,2S)-1-[(cyclopropylsulfonyl)carba-moyl]-2-vinylcyclopropyl}-7-{(2S)-3,3-dimethyl-2-[(1,6-naphthyridin-2-ylcarbonyl)amino]butanoyl}-10,10-dimethyl-7-azadispiro[3.0.4.1]decane-8-carboxamide]"
5,400 nM,"C=C[C@@H]1C[C@]1(NC(=O)[C@@H]1C[C@@]2(CN1C(=O)[C@@H](NCc1nc3ccccc3n1C)C(C)(C)C)C(C)(C)C21CCC1)C(=O)NS(=O)(=O)C1CC1 [Compound 12, (5R,8S)-N-{(1R,2S)-1-[(cyclopropylsulfonyl)carba-moyl]-2-vinylcyclopropyl}-7-[(2S)-3,3-dimethyl-2-{[(1-methyl-1H-benzimidazol-2-yl)methyl]amino}butanoyl]-10,10-dimethyl-7-azadispiro[3.0.4.1]decane-8-carboxamide]"
6,250 nM,"C=C[C@@H]1C[C@]1(NC(=O)[C@@H]1C[C@@]2(CN1C(=O)[C@@H](NS(=O)(=O)c1nccn1C)C(C)(C)C)C(C)(C)C21CCC1)C(=O)NS(=O)(=O)C1CC1 [Compound 13, (5R,8S)-N-{(1R,2S)-1-[(cyclopropylsulfonyl)carba-moyl]-2-vinylcyclopropyl}-7-[(2S)-3,3-dimethyl-2-{[(1-methyl-1H-imidazol-2-yl)sulfonyl]amino}butanoyl]-10,10-dimethyl-7-azadispiro[3.0.4.1]decane-8-carboxamide]"

# — patent publication US20110182850A1, “ORGANIC COMPOUNDS AND THEIR USES” (priority 2009, published 2011)
